In patent US8697033B2, “Modified pyrazine derivatives and uses thereof” (Medibeacon, LLC, priority 2008, dated 2014):
Marks after values point to notes of the source that are not given here.

How the values were obtained:
[1] = Invasive pharmacokinetic (PK) studies (plasma concentration by HPLC); assay type: in vivo, Sprague-Dawley rats; details: rat, 1 mL of 2 mM solution i.v., plasma samples 0-120 min, mean ± SEM; for clearance: male, Sprague-Dawley, iv
Procedure: 3.6. Invasive pharmacokinetic (PK) studies. Male Sprague-Dawley rats (330-380 g) are anesthetized by Inactin (I.P.). Rats are surgically instrumented with a trachea tube (PE-190) to facilitate breathing and femoral artery and vein catheters (PE-50 filled with 20 units/mL heparinized saline) for blood sampling and drug administration respectively. After administration of 1 mL of a 2 mM solution of agent, approximately 200 μL of blood is sampled and placed into a heparinized tube (Microtainer Brand Tube w/Lithium Heparin, BD 365971) at 0, 1, 6, 12, 18, 30, 45, 60, 90, 120 min. The concentration of compound in each centrifuged plasma sample is determined via HPLC analysis using a set of external calibration standards and fluorescence detection. The resulting pharmacokinetic parameters of the compound are analyzed using WinNonLin pharmacokinetic modeling software (Pharsight, Mountain View, Calif.). This method is used to detect renally excretable compounds of the invention and FIG. 8 provides a plot illustrating invasive PK (plasma concentration) as a function of time following delivery of a renally excretable compound.

[2] = Photophysical properties (excitation and emission maxima in PBS); assay type: physicochemical; details: 10 μM solution in PBS
Procedure: 3.2. Photophysical properties and protein binding. In general, renally excretable compounds are dissolved in PBS buffer to form a 2 mM stock solution. The UV absorbance properties are determined on a 100 μM solution in PBS using a UV-3101PC UV-Vis-NIR Scanning spectrophotometer system from Shimadzu. The fluorescence properties (λex, λem, and CPS at λem) are determined on a 10 μM solution in PBS using a Fluorolog-3 spectrofluorometer system from Jobin Yvon Horiba. The percent plasma protein binding are determined on a 20 μM compound solution in rat plasma incubated at 37° C. for 1 h. The separation of free from bound is made using an Amicon Centrifree YM-30 device (Regenerated Cellulose 30,000 MWCO) and a Z400K Refrigerated Universal Centrifuge from Hermle. The concentration of protein-free is determined via HPLC analysis using a set of external calibration standards and fluorescence detection.

[3] = Urine elimination studies; assay type: in vivo, Sprague-Dawley rats; details: rat, 1 mL of 2 mM in PBS by tail vein injection, 6 h post injection; mean ± SEM
Procedure: 3.3. Urine elimination studies. Rat urine elimination studies are conducted in either conscious or anesthetized Sprague-Dawley rats. The test compound (1 mL, 2 mM in PBS) is administered by tail vein injection into conscious, restrained rats, with subsequent collection of urine at the time points of 2, 4 and 6 h post injection. The metabolic cages are washed with water to maximize the recovery of urine discharged at each time point. Alternatively, rats are anesthetized with 100 mg/kg Inactin intraperitoneally, a trachea tube is inserted to maintain adequate respiration, and 1 mL of test compound is injected into the lateral tail vein. Rats are placed on 37° C. heating pad during the entire experiment. At 6 h post injection, the abdomen is opened, and the urine is removed from the bladder using a 21 gauge needle and a 3 cc syringe. Quantitation of each compound in urine is performed via HPLC analysis using a set of external calibration standards and fluorescence detection. The percent recovery of compound in urine at each time point is calculated based on the balance of mass.

[4] = Non-invasive optical pharmacokinetic studies (fluorescence at the ear); assay type: in vivo, Sprague-Dawley rats; details: rat, 1 mL of 2 mM solution into tail vein, fluorescence monitored at the ear; mean ± SEM
Procedure: 3.4. Non-Invasive optical pharmacokinetic studies. Male Sprague-Dawley rats (330-380 g) are anesthetized by Inactin (I.P.) or 2% Isoflurane gas anesthesia delivered by a small rodent gas anesthesia machine (RC2, Vetequip, Pleasanton, Calif.). The animals are placed on a heated board where temperature is maintained between 36-38° C. One ear lobe is glued flat to a glass slide positioned approximately 2 mm beneath a fiber optic bundle for recording fluorescence from a test compound passing through the ear. After a 100 second baseline recording, 1 mL of a 2 mM solution is injected into the tail-vein of the rat and the fluorescence signal corresponding to plasma and tissue distribution and subsequent renal clearance of the compound is monitored at the ear. The pharmacokinetic parameters of the compounds are analyzed using WinNonLin pharmacokinetic modeling software (Pharsight, Mountain View, Calif.) and Microsoft (Redmond, Wash.) Excel. This method is used to detect renally excretable compounds of the invention and FIG. 6 provides a plot illustrating non-invasive in vivo fluorescence as a function of time following delivery of a renally excretable compound.
3.5. Optical monitoring apparatus and protocol. A nominal 473 nm solid state laser source (100) is employed (Power Technology model LDCU12/7314). […]

SMILES | clearance [1] [mL/min] | Plasma PK Clearance T1/2β [1] | Photophysical Properties Emission λmax [2] [nm] | Photophysical Properties Excitation λmax [2] [nm] | Percent in Urine (6 hrs) [3] | Tissue clearance (Optical) T1/2β [4]
CCCNc1nc(C(=O)NCCNC(=O)CCOCCOCCOCCOCCOCCOCCOCCOCCOCCOCCOCCOC)c(NCCC)nc1C(=O)NCCNC(=O)CCOCCOCCOCCOCCOCCOCCOCCOCCOCCOCCOCCOC [Compound 1, N^2,N^5-Bis(38-oxo-2,5,8,11,14,17,20,23,26,29,32,35-dodecaoxa-39-azahentetracontan-41-yl)-3,6-bis(propylamino)pyrazine-2,5-dicarboxamide] | 3 ± 0.2 | 21.7 ± 1.3 (3)^b min | 613 | 498 |  | 
CCCNc1nc(C(=O)NCCOCCOCCOCCOCCOCCOCCOCCOCCOCCOCCOCCOCCOCCOCCOCCOCCOCCOCCOCCOCCOCCOCCOCCOC)c(NCCC)nc1C(=O)NCCOCCOCCOCCOCCOCCOCCOCCOCCOCCOCCOCCOCCOCCOCCOCCOCCOCCOCCOCCOCCOCCOCCOCCOC [Compound 4, 3,6-Bis(propylamino)-N^2,N^5-di(2,5,8,11,14,17,20,23,26,29,32,35,38,41,44,47,50,53,56,59,62,65,68,71-tetracosaoxatriheptacontan-73-yl)pyrazine-2,5-dicarboxamide] | 4.3 ± 1.1 | 15.2 ± 6.7 (2) min | 611 | 501 | 85 ± 2 (3) Percent | 20.5 ± 2.5 (3) min
